# Test results taken from US20040157811A1, “Inhibition of the growth factor dependency of tumor cells” (priority 2000, published 2004).
# “Also recorded” adds a separate entry of the source.
# Columns and labels:
# [1] = system: binding of EGF to T47D cells; experiment: Binding of 125I-EGF to tumor cells (R5020-pretreated T47D cells); format: cell-based, human; details: for block of the R5020-caused increase of 125I-EGF binding to intact T47D cells: T47D cells treated 48 hours with 2 or 20 nM R5020 plus test substance, FIG. 5
# Protocol: R5020-Pretreated T47D cells were incubated for 2 hours with ^125I-EGF at 4° C. The unspecific binding was always less than 10% of the total binding.
# In FIG. 4, a Scatchard analysis of the ^125I-EGF binding to T47D cells is shown. The cells were cultivated for 48 hours in the presence of 20 nM of R5020 with or without 20 nM of compound A and then washed. Then, the EGF-binding over a concentration range of 0.25 to 150 ng/ml of EGF was determined by incubation for 2 hours at 4° C. The insertions show the amount of bonded ligands relative to the logarithm of the free ligand concentration.
# In FIG. 5, the binding of ^125I-EGF to intact T47D cells is shown. For this purpose, the cells were treated for 48 hours with 2 or 20 nM of R5020 plus compound A or onapristone or compound A alone.
# [2] = target: T1, progesterone receptor (PR) (Homo sapiens, UniProt P06401); experiment: Transactivation assay (MTV-LUC, luciferase) in T47D cells; format: cell-based; details: T47D cells transiently transfected with MTV-LUC, treated with R5020 plus increasing concentrations, 24 hours, FIG. 3
# T1 construct: T47D cells were transiently transfixed with MTV-LUC; endogenous in cells; host or cells: T47D human breast carcinoma cells
# T1 sequence (P06401 1-933): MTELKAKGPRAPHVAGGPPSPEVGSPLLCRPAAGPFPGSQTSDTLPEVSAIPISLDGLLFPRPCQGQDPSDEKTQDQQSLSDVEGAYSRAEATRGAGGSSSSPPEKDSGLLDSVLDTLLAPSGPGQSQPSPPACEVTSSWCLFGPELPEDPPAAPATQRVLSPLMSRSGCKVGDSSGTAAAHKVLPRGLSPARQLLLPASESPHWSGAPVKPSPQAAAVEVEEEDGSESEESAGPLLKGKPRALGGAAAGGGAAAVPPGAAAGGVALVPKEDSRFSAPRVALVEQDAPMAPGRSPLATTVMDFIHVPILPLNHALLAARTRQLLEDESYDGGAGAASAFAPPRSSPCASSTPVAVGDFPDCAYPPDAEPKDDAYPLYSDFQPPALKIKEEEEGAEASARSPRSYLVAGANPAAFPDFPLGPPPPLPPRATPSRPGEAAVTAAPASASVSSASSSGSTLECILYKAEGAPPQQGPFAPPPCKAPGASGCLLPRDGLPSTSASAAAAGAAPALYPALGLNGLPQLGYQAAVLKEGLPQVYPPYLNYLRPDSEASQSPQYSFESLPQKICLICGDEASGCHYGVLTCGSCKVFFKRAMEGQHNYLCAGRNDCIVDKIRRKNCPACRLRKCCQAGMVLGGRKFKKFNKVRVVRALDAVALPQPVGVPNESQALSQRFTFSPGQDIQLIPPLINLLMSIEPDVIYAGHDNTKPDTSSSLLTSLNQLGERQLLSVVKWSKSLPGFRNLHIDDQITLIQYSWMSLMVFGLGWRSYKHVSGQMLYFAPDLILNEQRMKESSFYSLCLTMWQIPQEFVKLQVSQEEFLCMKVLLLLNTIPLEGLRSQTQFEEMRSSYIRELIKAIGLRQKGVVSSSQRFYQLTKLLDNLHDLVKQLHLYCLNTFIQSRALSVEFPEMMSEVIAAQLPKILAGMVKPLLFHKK
# Protocol: T47D cells were transiently transfixed with MTV-LUC (Cato et al., EMBO J., 9: 2237-40) and cultivated in the absence or the presence of 1 nM of R5020. In the test on a PR-mediated antagonism, the transiently transfixed T47D cells were treated with R5020 and in addition with increasing concentrations of compound A or RU486. After 24 hours, a luciferase test was performed.
# In the test for a PR-mediated antagonism, the transiently transfixed T47D cells were treated with 0.1 nM of R5020 and increasing concentrations of compound A or […] (b).
# EGF-receptor expression = EGF-receptor expression in R5020-stimulated T47D cells; format: cell-based, human; details: T47D cells stimulated with R5020
# [3] = system: breast carcinoma cell line T47D; experiment: Growth studies, antiproliferative action on T47D cells (crystal violet); format: cell-based, human; details: 0.1 nM estradiol, 6 days, increasing concentrations, FIG. 1
# Protocol: The tumor cells were cultivated at 5000 cells/well in 96-well plates for 6 days in RPMI medium plus 10% bovine serum, 200 nM of insulin and 0.1 nM of estradiol in the presence of the compounds that are indicated in each case, and the growth was determined by staining with crystal violet.
# 2. […] T47D cells were cultivated in the presence (upper cross-hatching) or absence (lower cross-hatching) of 0.1 nM of E2 plus increasing concentrations of compound A (▴), onapristone (▪), ZK191703 (●) or 4-OH-Tam (♦).
smiles,measurement,setting,value
"CC(=O)c1ccc([C@H]2C[C@@]3(C)[C@@H](CC[C@@]3(O)C(F)(F)C(F)(F)F)[C@@H]3CCC4=CC(=O)CCC4=C32)cc1 [compound A, 11β-(4-acetylphenyl)-17β-hydroxy-17α-(1,1,2,2,2-pentafluoroethyl)-estra-4,9-dien-3-one]",block of the R5020-caused increase of 125I-EGF binding to intact T47D cells,[1],blocks the increase of the EGF-binding; also recorded: could be prevented
same,block of the R5020-caused increase of 125I-EGF binding (Scatchard analysis),"[1]; T47D cells, 48 hours, 20 nM R5020 with 20 nM compound A, EGF 0.25 to 150 ng/ml, 2 hours at 4° C, FIG. 4",block the increase of the EGF binding
same,block of transcriptional activity of PR (PR-mediated antagonism),[2],could be blocked
same,block of R5020-increased EGF-receptor expression,EGF-receptor expression,blocked
same,antiproliferative action / block of estradiol-stimulated growth of T47D cells,[3],significant antiproliferative action at extremely small concentrations; also recorded: effectively blocked
"CN(C)c1ccc([C@H]2C[C@]3(C)[C@@H](CC[C@]3(O)CCCO)[C@@H]3CCC4=CC(=O)CCC4=C32)cc1 [onapristone, 11β-[p-(dimethylamino)phenyl]-17α-hydroxy-17-(3-hydroxypropyl)-13α-estra-4,9-dien-3-one, reference compound]",block of the R5020-caused increase of 125I-EGF binding to intact T47D cells,[1],considerably weaker effect; also recorded: less efficiently
